Measurements taken from ChEMBL document CHEMBL1201862, “PubChem BioAssay data set” (2004).
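Each compound was tested at five concentrations against cells in 96-well plates for 48 hours. Abbreviation: GI50, concentration required for 50% inhibition of growth.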 Calls of active or inactive are those of the source. Cut-off read from the data, not from the text of the source: active = GI50 up to about 1.1 µM and inactive = higher.

Experiments:
Assay in all cases: DTP human tumour cell line panel, 48 h
SW-620 = tested on: SW-620
NCI-H460 = tested on: NCI-H460
M19-MEL = tested on: M19-MEL
LXFL 529 = tested on: LXFL 529
KM-20L2 = tested on: KM-20L2
SF-539 = tested on: SF-539
HT-29 = tested on: HT-29
HOP-92 = tested on: HOP-92
UACC-257 = tested on: UACC-257
EKVX = tested on: EKVX
HL-60 = tested on: HL-60
HCT-15 = tested on: HCT-15
HCC 2998 = tested on: HCC 2998
IGROV-1 = tested on: IGROV-1
SNB-78 = tested on: SNB-78
DLD-1 = tested on: DLD-1
786-0 = tested on: 786-0
OVCAR-3 = tested on: OVCAR-3
HCT-116 = tested on: HCT-116
Malme-3M = tested on: Malme-3M
OVCAR-4 = tested on: OVCAR-4
UACC-62 = tested on: UACC-62
NCI-H226 = tested on: NCI-H226
CCRF-CEM = tested on: CCRF-CEM
SF-268 = tested on: SF-268
HOP-18 = tested on: HOP-18
COLO 205 = tested on: COLO 205
SN12C = tested on: SN12C
SK-MEL-2 = tested on: SK-MEL-2
NCI-H23 = tested on: NCI-H23
SK-MEL-28 = tested on: SK-MEL-28
DMS-273 = tested on: DMS-273
M14 = tested on: M14
SK-MEL-5 = tested on: SK-MEL-5
XF498 = tested on: XF498
DMS-114 = tested on: DMS-114
ACHN = tested on: ACHN
OVCAR-8 = tested on: OVCAR-8
A498 = tested on: A498
HOP-62 = tested on: HOP-62
LOX IMVI = tested on: LOX IMVI
A549 = tested on: A549
NCI-H522 = tested on: NCI-H522
K562 = tested on: K562
TK-10 = tested on: TK-10
RPMI-8226 = tested on: RPMI-8226
KM12 = tested on: KM12
UO-31 = tested on: UO-31
CAKI-1 = tested on: CAKI-1
SNB-75 = tested on: SNB-75
OVCAR-5 = tested on: OVCAR-5
U-251 = tested on: U-251
SF-295 = tested on: SF-295
SNB-19 = tested on: SNB-19
SR = tested on: SR
MOLT-4 = tested on: MOLT-4
RXF 393 = tested on: RXF 393

With `C=C1CCC2[C@@H](CCC3[C@]2(C)CCC[C@]3(C)C(=O)OC)[C@@H]1CC=O` (stereo partly specified) the GI50 (SW-620) was 17.6 µM (inactive), the GI50 (NCI-H460) was 20 µM (inactive) and the GI50 (M19-MEL) was 22.4 µM (inactive). The GI50 (LXFL 529) was 31.9 µM (inactive), the GI50 (KM-20L2) was 27 µM (inactive) and the GI50 (SF-539) was 17.9 µM (inactive). For the same compound, the GI50 (HT-29) was 28.1 µM (inactive), the GI50 (HOP-92) was 20.2 µM (inactive) and the GI50 (UACC-257) was 26.5 µM (inactive). The GI50 (EKVX) was 35.1 µM (inactive), the GI50 (HL-60) was 23.5 µM (inactive) and the GI50 (HCT-15) was 29.5 µM. The GI50 (HCC 2998) was 61.7 µM (inactive), the GI50 (IGROV-1) was 35.8 µM (inactive) and the GI50 (SNB-78) was 34.4 µM (inactive). For the same compound, the GI50 (DLD-1) was 33.6 µM (inactive), the GI50 (786-0) was 36.1 µM (inactive) and the GI50 (OVCAR-3) was 20.5 µM (inactive). The GI50 (HCT-116) was 16.7 µM (inactive), the GI50 (Malme-3M) was 28.8 µM (inactive) and the GI50 (OVCAR-4) was 27.6 µM (inactive). The GI50 (UACC-62) was 24.6 µM (inactive), the GI50 (NCI-H226) was 27.7 µM (inactive) and the GI50 (CCRF-CEM) was 22.4 µM (inactive). For the same compound, the GI50 (SF-268) was 34.6 µM (inactive), the GI50 (HOP-18) was 24.8 µM (inactive) and the GI50 (COLO 205) was 36.9 µM (inactive). For the same compound, the GI50 (SN12C) was 30.3 µM (inactive), the GI50 (SK-MEL-2) was 31.6 µM (inactive) and the GI50 (NCI-H23) was 25.8 µM (inactive). The GI50 (SK-MEL-28) was 27.7 µM (inactive), the GI50 (DMS-273) was 22.4 µM (inactive) and the GI50 (M14) was 19.4 µM (inactive). For the same compound, the GI50 (SK-MEL-5) was 17 µM (inactive), the GI50 (XF498) was 19.9 µM (inactive) and the GI50 (DMS-114) was 22 µM (inactive). For the same compound, the GI50 (ACHN) was 27.2 µM (inactive) and the GI50 (OVCAR-8) was 23.6 µM (inactive).
In the case of `O=C(c1ccccc1)c1ccc2cccc(OC3OC(CO)C(O)C(O)C3O)c2n1` (stereo unspecified), the GI50 (SW-620) is reported as > 100 µM (inactive), the GI50 (NCI-H460) is reported as 74.6 µM (inactive) and the GI50 (LXFL 529) is reported as > 100 µM (inactive). The GI50 (KM-20L2) was > 100 µM (inactive), the GI50 (SF-539) was > 100 µM (inactive) and the GI50 (HT-29) was > 100 µM (inactive). For the same compound, the GI50 (A498) was 26.8 µM (inactive), the GI50 (HOP-62) was > 100 µM (inactive) and the GI50 (LOX IMVI) was > 100 µM (inactive). For the same compound, the GI50 (UACC-257) was 54.7 µM (inactive), the GI50 (A549) was > 100 µM (inactive) and the GI50 (NCI-H522) was > 100 µM (inactive). The GI50 (EKVX) was > 100 µM (inactive), the GI50 (HCT-15) was greater than 100 µM and the GI50 (K562) was > 100 µM (inactive). For the same compound, the GI50 (HCC 2998) was > 100 µM (inactive), the GI50 (IGROV-1) was > 100 µM (inactive) and the GI50 (SNB-78) was > 100 µM (inactive). The GI50 (DLD-1) was > 100 µM (inactive), the GI50 (TK-10) was > 100 µM (inactive) and the GI50 (RPMI-8226) was > 100 µM (inactive). The GI50 (KM12) was > 100 µM (inactive), the GI50 (786-0) was > 100 µM (inactive) and the GI50 (OVCAR-3) was 45.2 µM (inactive). The GI50 (UO-31) was > 100 µM (inactive), the GI50 (HCT-116) was > 100 µM (inactive) and the GI50 (Malme-3M) was > 100 µM (inactive). For the same compound, the GI50 (OVCAR-4) was > 100 µM (inactive), the GI50 (UACC-62) was > 100 µM (inactive) and the GI50 (NCI-H226) was > 100 µM (inactive). The GI50 (CAKI-1) was > 100 µM (inactive), the GI50 (SF-268) was > 100 µM (inactive) and the GI50 (SNB-75) was 68.4 µM (inactive). The GI50 (HOP-18) was > 100 µM (inactive), the GI50 (OVCAR-5) was > 100 µM (inactive) and the GI50 (COLO 205) was > 100 µM (inactive). The GI50 (SN12C) was > 100 µM (inactive), the GI50 (U-251) was > 100 µM (inactive) and the GI50 (SK-MEL-2) was > 100 µM (inactive). The GI50 (SF-295) was 51.5 µM (inactive), the GI50 (SNB-19) was > 100 µM (inactive) and the GI50 (NCI-H23) was > 100 µM (inactive). For the same compound, the GI50 (SK-MEL-28) was > 100 µM (inactive), the GI50 (SR) was > 100 µM (inactive) and the GI50 (DMS-273) was > 100 µM (inactive). The GI50 (M14) was > 100 µM (inactive), the GI50 (SK-MEL-5) was > 100 µM (inactive) and the GI50 (MOLT-4) was > 100 µM (inactive). The GI50 (RXF 393) was > 100 µM (inactive), the GI50 (XF498) was > 100 µM (inactive) and the GI50 (DMS-114) was > 100 µM (inactive). For the same compound, the GI50 (ACHN) was > 100 µM (inactive) and the GI50 (OVCAR-8) was 73.6 µM (inactive).
